{"source": "patent US20100284925A1", "about": "“Small Molecule Intervention for Obesity” (priority 2006, published 2010)", "key": {"[1]": {"test_system": "20-hydroxyecdysone activity", "conditions": "drosophila cells in culture; cited from earlier work"}, "PPARγ": {"test_system": "PPARγ", "experiment": "PPARγ response element luciferase reporter in L1 preadipocytes", "type": "cell-based", "conditions": "prieurianin 2 μM", "protocol": "(§1) FIG. 18. Effects of prieurianin on C/EBPα and β and PPARγ mediated transcription in adipogenesis. Response elements corresponding to C/EBPα and β and PPARγ are cloned into the pGL3 basic luciferase reporter plasmid. L1 preadipocytes were contransfected with the reporter plasmid either in the presence or the absence of the corresponding transcription factors cloned into expression vector, followed by treatment with 2 μM of prieurianin. Cells were harvested for luciferase assay 15-24 hrs later. Results are means±S.E. of triplicate experiments."}, "NIH-3T3/L1 preadipocytes [2]": {"test_system": "NIH-3T3/L1 preadipocytes", "experiment": "Differentiation of NIH-3T3/L1 preadipocytes into adipocytes (oil red O or Nile Red staining)", "type": "cell-based", "protocol": "FIG. 7. […] NIH-3T3/L1 cells were induced into differentiation and simultaneously treated with 2 μM of prieurianin. Differentiated cells were stained with oil red O—FIG. 7A, undifferentiated control.\nHistogram represents A510 nm absorbance of oil red O stain isopropanol extracts from cells. Results are means±S.E. of triplicate experiments.\n(§2) FIG. 19. Effects of bufalin on preadipocyte differentiation, and dedifferentiation/delipidation in adipo-cytes. NIH-3T3/L1 cells were induced into differentiation and simultaneously treated with either 1 μM of bufalin or 2 μM of prieurianin. Differentiated cells were stained with Nile Red. Alternatively, preadipocytes were induced into differentiation and five days following differentiation, cells were treated with either 1 μM of bufalin or 2 μM of prieurianin for an additional five days and followed by staining with Nile Red. Stained cells were evaluated by fluorescence microscopy.\nTo determine the effects of prieurianin on the differentiation of preadipocytes to adipocytes, the NIH-3T3/L1 preadipocytes were treated with or without the drug at the same time when induction of differentiation was initiated."}, "C/EBPα": {"test_system": "C/EBPα", "experiment": "C/EBPα response element luciferase reporter in L1 preadipocytes", "type": "cell-based", "conditions": "prieurianin 2 μM", "protocol": "as §1"}, "C/EBPβ": {"test_system": "C/EBPβ", "experiment": "C/EBPβ response element luciferase reporter in L1 preadipocytes", "type": "cell-based", "conditions": "prieurianin 2 μM", "protocol": "as §1"}, "[3]": {"experiment": "Cytotoxicity in cell culture studies", "type": "cell-based", "conditions": "data not shown"}, "NIH-3T3/L1 preadipocytes [4]": {"test_system": "NIH-3T3/L1 preadipocytes", "experiment": "Proliferation of NIH-3T3/L1 preadipocytes (daily cell counting)", "type": "cell-based", "protocol": "FIG. 6. Inhibition of NIH-3T3/L1 preadipocytes proliferation by prieurianin. Cells were treated with various concentrations (0.5, 1, and 2 μM) of prieurianin and growth was assessed by counting daily for 7 days. Results are means±S.E. of triplicate experiments."}, "[5]": {"experiment": "Diet-induced obese (DIO) C57BL/6J (B6) mice", "type": "in vivo", "protocol": "FIG. 16. Effects of prieurianin in diet-induced obese C57Bl/6J mice. B6 mice were put on 60% kcal high fat diet for approximately 15 weeks and then divided into groups of 10 and were then treated with either 1 (green) or 3 (brown) mg/kg of prieurianin daily intraperitoneally for three weeks compared to untreated (blue) or vehicle-treated (red) controls.\nFIG. 16A. Average weight changes of mice treated with prieurianin compared to controls through three weeks of treatment.\nFIG. 16B. Average food consumption in B6 mice treated with prieurianin as in FIG. 16A.\nFIG. 16C. Average weight changes in B6 mice treated with prieurianin on an “on-off” cyclical schedule for a total of 4 cycles described in the text. Results are the means S.E. of 10 animals per group, and the 3 mg/kg group with 20 mice.\nThe B6 mice were fed a 60% kcal high fat diet for approximately 15 weeks to gain weight and then treated with either 1 or 3 mg/kg of prieurianin intraperitoneally daily for 3 weeks. Mice continued to have access to the 60% kcal diet ad libitum during treatment.\nTo circumvent the problem of drug induced tolerance, a new protocol was developed where prieurianin treatment was stopped with the DIO mice, and the mice continued to be maintained on the high fat 60% kcal diet. Four weeks later, the mice were treated again with the following protocol: either 3 mg/kg of prieurianin for 5 days and followed by 5 days of drug holiday (no treatment), with the treatment repeated for 3 more cycles; or 5 mg/kg of prieurianin for 3 days and followed by 5 days of drug holiday, with the treatment repeated for 3 more cycles."}, "[6]": {"test_system": "differentiated NIH-3T3/L1 adipocytes", "experiment": "Loss of lipid-positive differentiated adipocytes (oil red O, A510; Nile Red)", "type": "cell-based", "protocol": "FIG. 8. Prieurianin induced loss of differentiated adipocytes. NIH-3T3/L1 preadipocytes were induced into differentiation. Five days following differentiation, cells were treated with various concentrations (0.5, 1, and 2 μM) of prieurianin for an additional five days and followed by staining with oil red O. Micrographs were obtained from representatives of triplicate experiments. Isopropanol extracts of positively stained cells were quantified spectrophotometrically at 510 nm as shown in histogram on the right. Results are means±S.E. of triplicate experiments.\nas §2\nTo assess whether prieurianin has any effect on the differentiated adipocytes, the preadipocytes were allowed to differentiate into adipocytes and then were further cultured for about five days before treating the adipocytes with prieurianin for an additional five to six days, followed by oil red O staining for the presence of lipid accumulating adipocytes."}, "adiponectin": {"test_system": "adiponectin", "experiment": "Adiponectin release into conditioned media (Western blot)", "type": "cell-based", "protocol": "FIG. 10. Release of adiponectin and PLTP by preadipocytes and adipocytes, and in serum of normal mice. Preadipocytes (B and D) were treated with 2 μM of prieurianin and media collected after 36 hrs for Western blot analysis of either adiponectin (A and B) or PLTP (C and D). Alternatively, five days following differentiation, conditioned media of adipocyets (A and C) were collected for Western analysis. E. Serum of normal C57BL/6J mice given prieurianin or topotecan (0, 2, 5, and 10 mg/kg) was analyzed by Western blot for PLTP.\nAdipose tissue contains various types of cells including preadipocytes and adipocytes. Also, preadipocytes secrete factors involved in their own differentiation. Once differentiated, the mature adipocytes acquire the ability to communicate distally with other organs including brain, liver, and skeletal muscle and locally with other cells such as preadipocytes, endothelial cells and monocytes/macrophages by secreting leptin and adiponectin. In addition, anti-adipogenic cytokines prevent the release of adiponectin by preadipocytes. Thus, the production of adiponectin and PLTP by preadipocytes and adipocytes was assessed."}}, "note": "“Also recorded” adds a separate entry of the source.", "data": [{"smiles": "C=C1[C@@H]([C@@]2(C)[C@@H](OC(C)=O)CC(=O)O[C@](C)(COC(C)=O)[C@@H]2C(=O)OC)[C@@H](OC=O)[C@H](OC(=O)[C@H](O)[C@H](C)CC)[C@@]2(C)[C@H](c3ccoc3)CC(=O)[C@]12O", "note": "[prieurianin]", "values": [{"measurement": "antagonism against 20-hydroxyecdysone activity", "setting": "[1]", "result": "antagonism against 20-hydroxyecdysone activity"}, {"measurement": "transactivation potential of PPARγ", "setting": "PPARγ", "result": "inhibits the transactivation potential"}, {"measurement": "preadipocytes differentiation", "setting": "NIH-3T3/L1 preadipocytes [2]; 2 μM, in the absence of staurosporine", "result": "almost completely inhibited preadipocytes differentiation"}, {"measurement": "differentiation of preadipocytes into lipid accumulating adipocytes", "setting": "NIH-3T3/L1 preadipocytes [2]; treated at induction of differentiation, oil red O", "result": "dose-dependently prevented the differentiation of preadipocytes"}, {"measurement": "transactivation potential of C/EBPα", "setting": "C/EBPα", "result": "inhibits the transactivation potential"}, {"measurement": "transactivation potential of C/EBPβ", "setting": "C/EBPβ", "result": "inhibits the transactivation potential"}, {"measurement": "cytotoxicity", "setting": "[3]", "result": "relatively non-cytotoxic compared with topotecan; also recorded: relatively non-cytotoxic compared to topotecan"}, {"measurement": "proliferation of preadipocytes", "setting": "NIH-3T3/L1 preadipocytes [4]; 0.5, 1 and 2 μM, 7 days", "result": "inhibited the proliferation of the NIH-3T3/L1 preadipocytes in a dose-dependent manner"}, {"measurement": "inhibition at 2 µM", "setting": "NIH-3T3/L1 preadipocytes [4]; Mus musculus, NIH3T3, 168 h, 2 μM, day 7", "result": 50, "unit": "%"}, {"measurement": "decrease in food consumption", "setting": "[5]; 1 or 3 mg/kg i.p. daily", "result": "70-80%"}, {"measurement": "weight loss of total body weight", "setting": "[5]; 1 or 3 mg/kg i.p. daily, within seven days of treatment", "result": "up to 10%"}, {"measurement": "body weight course after attained weight loss", "setting": "[5]; daily treatment for 3 weeks", "result": "gradual increase in body weight after week two"}, {"measurement": "decrease in body weight", "setting": "[5]; on-off cyclical schedule, 3 or 5 mg/kg, 4 cycles", "result": "up to 20%"}, {"measurement": "reduction of food consumption", "setting": "[5]; on-off cyclical treatment protocol", "result": "approximately 40%"}, {"measurement": "number of lipid positive cells (oil red O stain A510 absorbance)", "setting": "[6]; 2 μM", "result": "almost absent and reduced to a level comparable to the undifferentiated control"}, {"measurement": "number of oil red O stained cells", "setting": "[6]; adipocytes treated five days after differentiation, 0.5, 1 and 2 μM", "result": "profound dose-dependent reduction in the number of oil red O stained cells"}, {"measurement": "adiponectin release by preadipocytes", "setting": "adiponectin; NIH-3T3/L1 preadipocytes, approximately 36 hrs after treatment", "result": "inhibition of adiponectin release"}, {"measurement": "adiponectin production and release in differentiated adipocytes", "setting": "adiponectin; differentiated adipocytes", "result": "induced the production and release of high molecular weight form, as well as a modest increase in the secretion of total adiponectin"}]}]}
